# Values joined by “and” are separate entries in the source; they are usually repeats but may differ in a detail not shown here. Equal entries are not always repeated. Toxic doses and inconclusive results are not listed.
# Test system: L1210 leukemia ip in BDF1 mice, survival T/C
# Test: NCI In Vivo Anticancer Drug Screen. Data for tumor model L1210 Leukemia (intraperitoneal) in B6D2F1 (BDF1) mice
# Details: endpoint: mean survival time, higher = longer survival
# Outline: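 Survival endpoint. Drug-treated group vs vehicle group, expressed as T divided by C. Tumor passaged by transplantation.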
# [1] = dose: 400.0 mg/kg/injection, schedule: Q04DX002 (ip), vehicle: saline with Tween-80
# [2] = dose: 100.0 mg/kg/injection, schedule: Q01DX001 (ip), vehicle: saline
# [3] = dose: 200.0 mg/kg/injection, schedule: Q01DX001 (ip), vehicle: saline
# [4] = dose: 400.0 mg/kg/injection, schedule: Q01DX001 (ip), vehicle: saline
# [5] = dose: 100.0 mg/kg/injection, schedule: Q04DX003 (ip), vehicle: Klucel (hydroxypropylcellulose) (HPC)
# [6] = dose: 200.0 mg/kg/injection, schedule: Q04DX003 (ip), vehicle: Klucel (hydroxypropylcellulose) (HPC)
# [7] = dose: 400.0 mg/kg/injection, schedule: Q04DX003 (ip), vehicle: Klucel (hydroxypropylcellulose) (HPC)
# [8] = dose: 100.0 mg/kg/injection, schedule: Q04DX002 (ip), vehicle: Klucel (hydroxypropylcellulose) (HPC)
# [9] = dose: 200.0 mg/kg/injection, schedule: Q04DX002 (ip), vehicle: Klucel (hydroxypropylcellulose) (HPC)
# [10] = dose: 400.0 mg/kg/injection, schedule: Q04DX002 (ip), vehicle: Klucel (hydroxypropylcellulose) (HPC)
# [11] = dose: 50.0 mg/kg/injection, schedule: Q01DX001 (ip), vehicle: saline with Tween-80
# [12] = dose: 100.0 mg/kg/injection, schedule: Q01DX001 (ip), vehicle: saline with Tween-80
# [13] = dose: 50.0 mg/kg/injection, schedule: Q01DX009 (ip), vehicle: Klucel (hydroxypropylcellulose) (HPC)
# [14] = dose: 100.0 mg/kg/injection, schedule: Q01DX009 (ip), vehicle: Klucel (hydroxypropylcellulose) (HPC)
# [15] = dose: 200.0 mg/kg/injection, schedule: Q01DX009 (ip), vehicle: Klucel (hydroxypropylcellulose) (HPC)
# [16] = dose: 400.0 mg/kg/injection, schedule: Q01DX009 (ip), vehicle: Klucel (hydroxypropylcellulose) (HPC)
smiles,measurement,setting,value
O=C1/C(=C/c2ccco2)CCC/C1=C\c1ccco1,T/C,"dose: 100.0 mg/kg/injection, schedule: Q01DX001 (ip), vehicle: acetone",95 % of control
same,T/C,"dose: 100.0 mg/kg/injection, schedule: Q04DX002 (ip), vehicle: saline with Tween-80",92 % of control
same,T/C,"dose: 200.0 mg/kg/injection, schedule: Q01DX001 (ip), vehicle: acetone",87 % of control
same,T/C,"dose: 200.0 mg/kg/injection, schedule: Q04DX002 (ip), vehicle: saline with Tween-80",95 % of control
same,T/C,"dose: 400.0 mg/kg/injection, schedule: Q01DX001 (ip), vehicle: acetone",97 % of control
same,T/C,[1],98 % of control
CCOC(=O)/C(=C\c1ccccc1)C(=O)c1ccccc1,T/C,[2],97 % of control
same,T/C,"dose: 100.0 mg/kg/injection, schedule: Q04DX003 (ip), vehicle: saline",97 % of control
same,T/C,[3],93 % of control
same,T/C,"dose: 200.0 mg/kg/injection, schedule: Q04DX003 (ip), vehicle: saline",92 % of control
same,T/C,[4],88 % of control
same,T/C,"dose: 400.0 mg/kg/injection, schedule: Q04DX003 (ip), vehicle: saline",101 % of control
ClCC[n+]1ccccc1,T/C,"dose: 75.0 mg/kg/injection, schedule: Q01DX001 (ip), vehicle: saline",104 % of control
same,T/C,"dose: 150.0 mg/kg/injection, schedule: Q01DX001 (ip), vehicle: saline",101 % of control
CC(=O)OC1CCC2(COS(=O)(=O)c3ccc(C)cc3)C(=CCC3C2CCC2(C)C(C(C)CCCC(C)C)CCC32)C1 (stereo unspecified),T/C,"dose: 100.0 mg/kg/injection, schedule: Q04DX002 (ip), vehicle: steriod suspending solution",101 % of control
same,T/C,"dose: 200.0 mg/kg/injection, schedule: Q04DX002 (ip), vehicle: steriod suspending solution",104 % of control
same,T/C,"dose: 400.0 mg/kg/injection, schedule: Q04DX002 (ip), vehicle: steriod suspending solution",96 % of control
COC(=O)/C=C(\C)Sc1ccc(Cl)cc1,T/C,"dose: 100.0 mg/kg/injection, schedule: Q04DX002 (ip), vehicle: other",91 % of control
same,T/C,"dose: 200.0 mg/kg/injection, schedule: Q04DX002 (ip), vehicle: other",98 % of control
same,T/C,"dose: 400.0 mg/kg/injection, schedule: Q04DX002 (ip), vehicle: other",102 % of control
CN1C(=O)OC2(CCN(Cc3ccccc3)CC2)C1=O,T/C,[5],102 % of control
same,T/C,[6],90 % of control
same,T/C,[7],98 % of control
CCOC(=O)C1(C(=O)OCC)C(C)CC(=O)N1c1ccccc1OC (stereo unspecified),T/C,[8],106 % of control
same,T/C,[9],103 % of control
same,T/C,[10],97 % of control
CC1(N)COP(=O)(NCCCN2CCOCC2)OC1 (stereo unspecified),T/C,[2],96 % of control
same,T/C,[3],96 % of control
same,T/C,[4],96 % of control
CC(C)c1nc2c(n1Cc1ccccc1)C=C(C(=O)c1ccccc1)S(=O)(=O)C(C(=O)c1ccccc1)=C2,T/C,"dose: 25.0 mg/kg/injection, schedule: Q04DX003 (ip), vehicle: saline with Tween-80",107 % of control and 86 % of control
same,T/C,[11],93 % of control and 104 % of control
same,T/C,"dose: 50.0 mg/kg/injection, schedule: Q04DX002 (ip), vehicle: Klucel (hydroxypropylcellulose) (HPC)",106 % of control
same,T/C,"dose: 50.0 mg/kg/injection, schedule: Q04DX002 (ip), vehicle: saline with Tween-80",104 % of control and 105 % of control
same,T/C,[12],93 % of control and 89 % of control
same,T/C,[8],110 % of control
same,T/C,"dose: 200.0 mg/kg/injection, schedule: Q01DX001 (ip), vehicle: saline with Tween-80",100 % of control and 91 % of control
same,T/C,[9],93 % of control and 103 % of control
same,T/C,"dose: 200.0 mg/kg/injection, schedule: Q04DX003 (ip), vehicle: saline with Tween-80",96 % of control and 89 % of control
same,T/C,[10],93 % of control
same,T/C,[1],93 % of control and 89 % of control
CC(CN)OC12CC3CC(CC(C3)C1)C2 (stereo unspecified),T/C,"dose: 5.0 mg/kg/injection, schedule: Q04DX002 (ip), vehicle: saline",91 % of control
same,T/C,"dose: 10.0 mg/kg/injection, schedule: Q01DX009 (ip), vehicle: saline",94 % of control
same,T/C,"dose: 10.0 mg/kg/injection, schedule: Q04DX002 (ip), vehicle: saline",102 % of control
same,T/C,"dose: 20.0 mg/kg/injection, schedule: Q01DX009 (ip), vehicle: saline",101 % of control
same,T/C,"dose: 20.0 mg/kg/injection, schedule: Q04DX002 (ip), vehicle: saline",94 % of control
same,T/C,"dose: 40.0 mg/kg/injection, schedule: Q01DX009 (ip), vehicle: saline",101 % of control
same,T/C,"dose: 40.0 mg/kg/injection, schedule: Q04DX002 (ip), vehicle: saline",95 % of control and 91 % of control
COC(=O)NC1CC(CO)CC1O (stereo unspecified),T/C,[13],91 % of control
same,T/C,[14],89 % of control
same,T/C,[15],91 % of control
NC(=O)c1cc(=O)n(C2OC(CO)C(O)C2O)c2ncnc(N)c12 (stereo unspecified),T/C,"dose: 12.5 mg/kg/injection, schedule: Q01DX005 (ip), vehicle: water",104 % of control
same,T/C,"dose: 25.0 mg/kg/injection, schedule: Q01DX005 (ip), vehicle: water",90 % of control
same,T/C,"dose: 50.0 mg/kg/injection, schedule: Q01DX005 (ip), vehicle: water",95 % of control
same,T/C,"dose: 100.0 mg/kg/injection, schedule: Q01DX005 (ip), vehicle: water",98 % of control
same,T/C,"dose: 200.0 mg/kg/injection, schedule: Q01DX005 (ip), vehicle: water",95 % of control
CCC(C)(C)c1cccc(C(=O)O)c1O,T/C,"dose: 100.0 mg/kg/injection, schedule: Q01DX001 (ip), vehicle: carboxymethylcellulose (CMC)",104 % of control
same,T/C,"dose: 200.0 mg/kg/injection, schedule: Q01DX001 (ip), vehicle: carboxymethylcellulose (CMC)",93 % of control
COc1cccc(/C=c2\[nH]c(=O)/c(=C/c3cccc(OC)c3OC)[nH]c2=O)c1OC,T/C,[14],94 % of control
same,T/C,[5],88 % of control
same,T/C,[15],87 % of control
same,T/C,[6],91 % of control
same,T/C,[16],96 % of control
same,T/C,[7],91 % of control
Cc1ccc(C)c(NS(=O)(=O)c2cc(Cl)c(Cl)cc2Cl)c1,T/C,[14],98 % of control
same,T/C,[15],96 % of control
COC(=O)c1cc(/C=C/c2ccccc2)ccc1[N+](=O)[O-],T/C,"dose: 50.0 mg/kg/injection, schedule: Q04DX003 (ip), vehicle: alcohol",90 % of control
same,T/C,"dose: 100.0 mg/kg/injection, schedule: Q04DX003 (ip), vehicle: alcohol",101 % of control
same,T/C,"dose: 200.0 mg/kg/injection, schedule: Q04DX003 (ip), vehicle: alcohol",104 % of control
C(/C=N/N(c1ccccc1)c1ccccc1)=N\N(c1ccccc1)c1ccccc1,T/C,[14],97 % of control
same,T/C,[5],101 % of control
same,T/C,[15],92 % of control
same,T/C,[6],106 % of control
same,T/C,[16],95 % of control
same,T/C,[7],93 % of control
C[n+]1cccc2cc(C(=O)O)ccc21,T/C,"dose: 50.0 mg/kg/injection, schedule: Q01DX009 (ip), vehicle: acetone",101 % of control
same,T/C,"dose: 100.0 mg/kg/injection, schedule: Q01DX009 (ip), vehicle: acetone",97 % of control
same,T/C,"dose: 200.0 mg/kg/injection, schedule: Q01DX009 (ip), vehicle: acetone",93 % of control
CCNCC(=O)N(N=O)C(=O)OCC,T/C,"dose: 75.0 mg/kg/injection, schedule: Q01DX001 (ip), vehicle: steriod suspending solution",110 % of control
same,T/C,"dose: 150.0 mg/kg/injection, schedule: Q01DX001 (ip), vehicle: steriod suspending solution",102 % of control
CCCCSc1cc(C)nc(SCCCC)n1,T/C,[13],101 % of control
same,T/C,[14],101 % of control
same,T/C,[15],101 % of control
N#CC(C#N)=C(C#N)c1cccn1Cc1ccccc1,T/C,"dose: 87.5 mg/kg/injection, schedule: Q01DX009 (ip), vehicle: carboxymethylcellulose (CMC)",96 % of control
same,T/C,"dose: 175.0 mg/kg/injection, schedule: Q01DX009 (ip), vehicle: carboxymethylcellulose (CMC)",95 % of control
same,T/C,"dose: 350.0 mg/kg/injection, schedule: Q01DX009 (ip), vehicle: carboxymethylcellulose (CMC)",90 % of control
NC(=O)c1nn(C2OC(CO)C(O)C2O)c2ncnc(N)c12 (stereo unspecified),T/C,"dose: 50.0 mg/kg/injection, schedule: Q01DX005 (ip), vehicle: saline",236 % of control
same,T/C,"dose: 100.0 mg/kg/injection, schedule: Q01DX005 (ip), vehicle: saline",258 % of control
same,T/C,"dose: 200.0 mg/kg/injection, schedule: Q01DX005 (ip), vehicle: saline",236 % of control
[BH3-][NH2+]c1cccc([NH2+][BH3-])c1,T/C,[2],100 % of control
same,T/C,[3],96 % of control
same,T/C,[4],94 % of control
CCCCCCCCCCCCN=C(N)N/C(N)=N/S(=O)(=O)c1ccc(OCCCCC)cc1,T/C,[8],100 % of control
same,T/C,[9],95 % of control
same,T/C,[10],95 % of control
CC1C[N+](C)=C(c2ccc(O)cc2)S1 (stereo unspecified),T/C,[11],103 % of control
same,T/C,[12],107 % of control

# From PubChem BioAssay AID248 (DTP/NCI, 2004)
